The values below come from US9493472B2, “Substituted benzoxazoles” (BAYER PHARMA AKTIENGESELLSCHAFT, priority 2013, dated 2016).

Assay [1] addresses T1, thrombin (Homo sapiens (Human), UniProt P00734). Kind of assay: Measurement of the thrombin inhibition in buffer. Format: biochemical. The settings on record: human thrombin 0.06 nmol/l, Tris buffer pH 7.4, 22° C.; substrate Boc-Asp(OBzl)-Pro-Arg-AMC; in some cases means. The procedure:
To determine the thrombin inhibition of the substances listed above, a biochemical test system is constructed in which the conversion of a thrombin substrate is used for determining the enzymatic activity of human thrombin. Here, thrombin cleaves aminomethylcoumarin, which is measured fluorescently, from the peptic substrate. The determinations are carried out in microtitre plates.
Substances to be tested are dissolved in various concentrations in dimethyl sulphoxide and incubated for 15 min with human thrombin (0.06 nmol/l dissolved in 50 mmol/l of Tris buffer [C,C,C-tris(hydroxymethyl)aminomethane], 100 mmol/l of sodium chloride, 0.1% BSA [bovine serum albumin], pH 7.4) at 22° C. The substrate (5 μmol/l Boc-Asp(OBzl)-Pro-Arg-AMC from Bachem) is then added. After 30 min of incubation, the sample is excited at a wavelength of 360 nm and the emission is measured at 460 nm. The measured emissions of the test batches with test substance are compared to the control batches without test substance (only dimethyl sulphoxide instead of test substance in dimethyl sulphoxide) and the IC50 values are calculated from the concentration/activity relationships.

Assay [2] deals with T1, thrombin. Kind of assay: Thrombin-inhibitory activity in plasma samples (ecarin-activated). Format: biochemical. The settings on record: citrate plasma, prothrombinase activated by ecarin, fluorogenic thrombin substrate; in some cases means; read-out: IC50 [nM] thrombin inhibition in plasma samples. The procedure:
To determine the inhibition of thrombin in plasma samples, plasma […] is activated by ecarin. Thrombin activity and/or its inhibition by potential inhibitors is/are then measured fluorenscently by addition of a substrate.
The substances to be tested are dissolved in various concentrations in dimethyl sulphoxide and diluted with water. In white 96-well flat-bottomed plates, 20 μl of substance dilution are mixed with 20 μl of ecarin solution (ecarin reagent, from Sigma E-0504, final concentration 20 mU per reaction) in Ca buffer (200 mM Hepes+560 mM sodium chloride+10 mM calcium chloride+0.4% PEG) or with 20 μl of Ca buffer (as unstimulated control). Furthermore, 20 μl of fluorogenic thrombin substrate (from Bachem I-1120, final concentration 50 μmol/l) and 20 μl of citrate plasma (from Octapharma) are added, and the mixture is homogenized well. The plate is measured in a SpectraFluorplus Reader using a 360 nm excitation filter and a 465 nm emission filter every minute over 20 minutes.

Assay [3] concerns plasma (prothrombin time). Kind of assay: Anticoagulatory activity: prothrombin time (PT) in plasma. The settings on record: 37° C., 3 minutes incubation, plasma species not given, in some cases means, read-out: IC50 [μM] (concentration of test substance which effects a doubling of the prothrombin time). The method, then:
The anticoagulatory activity of the test substances is determined in vitro in human plasma, rabbit plasma and rat plasma. To this end, blood is drawn off in a mixing ratio of sodium citrate/blood of 1:9 using a 0.11 molar sodium citrate solution as receiver. Immediately after the blood has been drawn off, it is mixed thoroughly and centrifuged at about 4000 g for 15 minutes. The supernatant is pipetted off.
The prothrombin time (PT, synonyms: thromboplastin time, quick test) is determined in the presence of varying concentrations of test substance or the corresponding solvent using a commercial test kit (Neoplastin® from Boehringer Mannheim or Hemoliance® RecombiPlastin from Instrumentation Laboratory). The test compounds are incubated with the plasma at 37° C. for 3 minutes. Coagulation is then started by addition of thromboplastin, and the time when coagulation occurs is determined. The concentration of test substance which effects a doubling of the prothrombin time is determined Representative activity data from this test are given in Table 3 below (in some cases as means of individual determinations): […]

The test system of the next assay is New Zealand rabbits. Kind of assay: Rabbit venous reperfusion and bleeding model (combi model rabbit). Format: in vivo. The settings on record: for Increase in reperfusion (blood flow/time area): on top of tissue plasminogen activator; for Significance of increase in reperfusion: p > 0.05. The method, then: Male New Zealand rabbits having a weight of 2.8-3.4 kg are anaesthetized using an intramuscular ketamine/Rompun bole injection. The animal is then shaved at the places needed for the surgery. A continuous infusion of anaesthetic (ketamine/Rompun) is administered via the left auricular vein using an indwelling catheter. Left and right femoral vein and right femoral artery are catheterized with a polyethylene tube (PESO). The jugular vein is then carefully exposed such that the vessel is stressed and damaged as little as possible and no more fat is present at the vessel. Using a suitable apparatus for measuring flow (Powerlab, Transonic TS420 incl. flow probe head), the flow in the jugular vein is recorded (Lab Chart Software). Prior to the start of the experiment, twice 1.4 ml of citrated blood are removed from the rabbit via the femoral artery, and the basal bleeding time at the rim of the ear is determined. Once there has been a constant flow from the jugular vein for 10 min (complete regeneration of the vessel after preparation), a 2 cm section of the vein is pinched off using small vessel clamps. In a Petri dish, the citrated blood removed earlier (300 μl) is mixed with calcium chloride (0.25 M, 90 μl) and thrombin (25 U/ml, 60 μl). 180 μl of the blood/calcium chloride/thrombin mixture are quickly drawn into a 1 ml syringe and, via a 27G cannula, injected into the pinched-off segment of the vessel. The injection site is pinched off with a pair of tweezers for one minute so that no blood can escape. Two minutes after injection of the thrombus, the test substance is administered as bole and infusion via the left femoral vein catheter. 14 minutes after the thrombus injection, tissue plasminogen activator is administered as bole and infusion (Actilyse®, 20 μg/kg bole & 150 μg/kg/h infusion) at the right femoral vein. 15 minutes after thrombus injection, the stasis is opened and the flow probe head is attached. Blood flow in the vessel is recorded for 120 minutes, and the vessel is kept moist with warm 0.9% aqueous sodium chloride solution during this time. After 105 minutes of reperfusion, the ear bleeding time is determined again. At the end of the experiment, after 120 minutes of reperfusion, 1.4 ml of citrated blood are removed, the animal is sacrificed painlessly by a bole injection of 1.5 ml of T61 and the weight of the thrombus in the jugular vein is determined. The blood removed before and after the experiment is used to obtain plasma and to determine the ex vivo coagulation time.
The area obtainable with tissue plasminogen activator alone is subtracted from the area achieved using the respective substance or dosage. The resulting area is a measure of the improvement of reperfusion by the test substance (Table 4).

Setting [4] is: bole 0.33 mg/kg, continuous infusion 0.43 mg/kg/h.
The mark [5] stands for this setting: bole 0.08 mg/kg, continuous infusion 0.09 mg/kg/h.

`COc1cc(C(=O)N2CC(C)(CCO)OC[C@H]2C)cc2nc(NC(CF)c3cccc(Cl)c3)oc12` (single isomer, unassigned) [Example 11]: the IC50 was 0.01 nM on thrombin [1], 5.7 nM on thrombin [2] and 1 µM in assay [3].

Consider `COc1cc(C(=O)N2CC(C)OC[C@@H]2CCO)cc2nc(NC(CF)c3cccc(Cl)c3)oc12` (single isomer, unassigned) [Example 15], for which, in assay [3], the IC50 was determined as 1.1 µM. In the assay on New Zealand rabbits (setting [4]), the “Increase in reperfusion (blood flow/time area)” value is given as 12.2% and the “Significance of increase in reperfusion” value was “insignificant effect”.

As for `CCO[C@@H]1CC(CO)N(C(=O)c2cc(OC)c3oc(NC(CF)c4cccc(Cl)c4)nc3c2)C1` (single isomer, unassigned) [Example 27], the IC50 worked out at 0.16 nM at thrombin [1], 4.6 nM on thrombin [2] and 1 µM in assay [3].

For the compound `COc1cc(C(=O)N2CC3(CC3)NC(=O)C2C)cc2nc(NC(CF)c3cccc(Cl)c3)oc12` (single isomer, unassigned) [Example 33, 7-[(2-{[1-(3-Chlorophenyl)-2-fluoroethyl]amino}-7-methoxy-1,3-benzoxazol-5-yl)carbonyl]-6-methyl-4,7-diazaspiro[2.5]octan-5-one], the IC50 was found to be 0.38 nM against thrombin [1], 8.4 nM on thrombin [2] and 0.8 µM in assay [3].

Regarding `COc1cc(C(=O)N2CC(C)(CC(C)O)OC[C@H]2C)cc2nc(NC(CF)c3cccc(Cl)c3)oc12` (stereo partly drawn) [Example 12, (2-{[1-(3-Chlorophenyl)-2-fluoroethyl]amino}-7-methoxy-1,3-benzoxazol-5-yl)[(5R)-2-(2-hydroxypropyl)-2,5-dimethylmorpholin-4-yl]methanone], the IC50 at thrombin [1] stood at 0.1 nM; at thrombin [2], 14.7 nM; in assay [3], 1.5 µM.

Consider `COc1cc(C(=O)N2CC(C)OC[C@]23C[C@H](O)C3)cc2nc(NC(CF)c3cccc(Cl)c3)oc12` (stereo partly drawn) [Example 21, (2-{[1-(3-Chlorophenyl)-2-fluoroethyl]amino}-7-methoxy-1,3-benzoxazol-5-yl)(cis-2-hydroxy-7-methyl-8-oxa-5-azaspiro[3.5]non-5-yl)methanone], for which the results for the IC50 (on thrombin [1]; on thrombin [2]; in assay [3]) were 1.4 nM, 6.2 nM and 1.3 µM, respectively.

Take `COc1cc(C(=O)N2CC(C)(C)OC[C@H]2CCO)cc2nc(NC(CF)c3cccc(Cl)c3)oc12` (stereo partly drawn) [Example 25, (2-{[1-(3-Chlorophenyl)-2-fluoroethyl]amino}-7-methoxy-0,2-benzoxazol-5-yl)[(5R)-5-(2-hydroxyethyl)-2,2-dimethylmorpholin-4-yl]methanone]: the IC50 at thrombin [1] is 4.3 nM; on thrombin [2], 4.7 nM; in assay [3] it was 1.1 µM.

With `O=C(NC[C@H]1CN(c2ccc(N3CCOCC3=O)cc2)C(=O)O1)c1ccc(Cl)s1` [rivaroxaban, 5-chloro-N-({(5S)-2-oxo-3-[4-(3-oxo-4-morpholinyl)-phenyl]-1,3-oxazolidin-5-yl}methyl)-2-thiophenecarboxamide, reference compound], in the assay with New Zealand rabbits (setting [5]), the “Increase in reperfusion (blood flow/time area)” value was 13.0% and the “Significance of increase in reperfusion” value is “insignificant effect”.
